Data taken from patent publication US12479849B2, “EGFR inhibitors for the treatment of cancer” (Hoffmann-La Roche Inc., priority 2019, dated 2025).

Each compound was assayed against T1, EGFR TMLRCS (Homo sapiens, UniProt P00533, C797S/L858R/T790M) (assay: HTRF Phospho EGFR TMLRCS Assay (Cellular)). Conditions: BaF3-TMLRCS cell line, 4 hours incubation, Phospho-EGFR HTRF readout.
T1 construct: host or cells: BaF3-TMLRCS (Ba/F3 cells, kept under puromycin selection)
T1 sequence (P00533 25-1210 T790M/C797S/L858R): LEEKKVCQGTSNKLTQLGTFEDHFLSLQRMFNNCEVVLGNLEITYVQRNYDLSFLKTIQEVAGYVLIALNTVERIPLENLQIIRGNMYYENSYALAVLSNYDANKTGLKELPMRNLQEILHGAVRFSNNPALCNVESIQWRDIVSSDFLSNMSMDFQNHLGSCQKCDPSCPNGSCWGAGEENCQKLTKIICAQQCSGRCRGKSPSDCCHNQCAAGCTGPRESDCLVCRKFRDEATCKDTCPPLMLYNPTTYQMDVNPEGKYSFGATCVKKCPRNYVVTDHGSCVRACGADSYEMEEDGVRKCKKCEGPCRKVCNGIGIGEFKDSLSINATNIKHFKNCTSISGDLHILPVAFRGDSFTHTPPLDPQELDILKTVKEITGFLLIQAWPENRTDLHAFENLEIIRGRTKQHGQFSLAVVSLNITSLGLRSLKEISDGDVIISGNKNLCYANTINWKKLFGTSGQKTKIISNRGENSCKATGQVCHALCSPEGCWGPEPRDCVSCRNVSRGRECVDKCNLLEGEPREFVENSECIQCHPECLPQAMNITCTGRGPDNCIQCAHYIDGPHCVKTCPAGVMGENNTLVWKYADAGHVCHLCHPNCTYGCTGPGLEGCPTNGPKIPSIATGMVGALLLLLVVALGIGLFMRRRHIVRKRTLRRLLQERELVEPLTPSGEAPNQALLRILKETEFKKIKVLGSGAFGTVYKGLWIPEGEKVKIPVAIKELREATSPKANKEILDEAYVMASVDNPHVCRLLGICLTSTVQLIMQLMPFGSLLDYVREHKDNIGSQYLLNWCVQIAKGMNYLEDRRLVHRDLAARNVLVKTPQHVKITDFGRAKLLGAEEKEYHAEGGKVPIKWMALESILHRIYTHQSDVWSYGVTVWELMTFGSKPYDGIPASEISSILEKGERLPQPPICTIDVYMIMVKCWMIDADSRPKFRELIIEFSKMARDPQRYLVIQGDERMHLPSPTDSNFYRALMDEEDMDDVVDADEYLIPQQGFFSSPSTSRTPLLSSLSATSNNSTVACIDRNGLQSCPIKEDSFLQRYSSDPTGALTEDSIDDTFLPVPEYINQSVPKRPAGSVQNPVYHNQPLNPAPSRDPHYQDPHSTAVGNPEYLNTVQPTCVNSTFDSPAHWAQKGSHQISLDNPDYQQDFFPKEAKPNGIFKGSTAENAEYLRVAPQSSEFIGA
Format: cell-based
Summary of the method: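 BaF3 cells expressing EGFR L858R/T790M/C797S, 20000/well, treated with compound in dose response for 4 h at 37 °C, 5% CO2. After lysis, phospho-EGFR detected by HTRF with cryptate and d2 antibodies over 4 h at room temperature. Signal taken as 665/616 nm ratio ×10000, normalized.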
With O=C(Nc1nccs1)C(c1ncn2c1C[C@@H](F)C2)n1cc2c(Cl)cc(-c3ccc(CN4CC5(CC(O)C5)C4)cc3)c(Cl)c2n1 (mixture of isomers) [Example 62, rac-2-(4,7-Dichloro-6-(4-((6-hydroxy-2-azaspiro[3.3]heptan-2-yl)methyl)phenyl)-2H-indazol-2-yl)-2-((R)-6-fluoro-6,7-dihydro-5H-pyrrolo[1,2-c]imidazol-1-yl)-N-(thiazol-2-yl)acetamide] the IC50 was 8 nM.
O=C(Nc1nccs1)C(c1ncn2c1C[C@@H](F)C2)n1cc2c(Cl)cc(-c3ccc([C@@H]4CCN(CCO)C[C@H]4F)cc3)c(Cl)c2n1 (single isomer, unassigned) [Example 54] gave an IC50 of 5 nM.
CN(CCN1CC(CO)C1)c1ccc(-c2cc(Cl)c3cn(C(C(=O)Nc4nccs4)c4ncn5c4C[C@@H](F)C5)nc3c2Cl)cc1 (stereo partly shown) [Example 89] was tested, and the IC50 was 10 nM.
CCN1C[C@H]2CC(c3ccc(-c4cc(Cl)c5cn(C(C(=O)Nc6nccs6)c6ncn7c6C[C@@H](F)C7)nc5c4Cl)cc3)C[C@H]2C1 (stereo partly drawn) [Example 43, 2-(4,7-Dichloro-6-(4-((3aR,6aS)-2-ethyloctahydrocyclopenta[c]pyrrol-5-yl)phenyl)-2H-indazol-2-yl)-2-((R)-6-fluoro-6,7-dihydro-5H-pyrrolo[1,2-c]imidazol-1-yl)-N-(thiazolyl)acetamide] was tested, and the IC50 was 11 nM.
For O=C(Nc1nccs1)C(c1ncn2c1C[C@@H](F)C2)n1cc2c(Cl)cc(-c3ccc(N4CCOC(CO)C4)cc3)c(Cl)c2n1 (mixture of isomers) [Example 67, rac-2-(4,7-Dichloro-6-(4-(2-(hydroxymethyl)morpholino)phenyl)-2H-indazol-2-yl)-2-((R)-6-fluoro-6,7-dihydro-5H-pyrrolo[1,2-c]imidazol-1-yl)-N-(thiazol-2-yl)acetamide], the IC50 was 3 nM.
In the case of O=C(Nc1nccs1)C(c1ncn2c1C[C@@H](F)C2)n1cc2c(Cl)cc(-c3ccc(CN4CCC(CO)CC4)cc3)c(Cl)c2n1 (mixture of isomers) [Example 53, rac-2-(4,7-Dichloro-6-(4-04-(hydroxymethyl)piperidin-1-yl)methyl)phenyl)-2H-indazol-2-yl)-2-((R)-6-fluoro-6,7-dihydro-5H-pyrrolo[1,2-c]imidazol-1-yl)-N-(thiazol-2-yl)acetamide], the IC50 is reported as 5 nM.
O=C(Nc1nccs1)C(c1ncn2c1C[C@@H](F)C2)n1cc2c(Cl)cc(-c3ccc(C4CCN(C5CC(O)C5)CC4)cc3)c(Cl)c2n1 (mixture of isomers) [Example 87, rac-2-(4,7-Dichloro-6-(4-(1-(3-hydroxycyclobutyl)piperidin-4-yl)phenyl)-2H-indazol-2-yl)-2-((R)-6-fluoro-6,7-dihydro-5H-pyrrolo[1,2-c]imidazol-1-yl)-N-(thiazol-2-yl)acetamide] was tested, and the IC50 was 9 nM.
In the case of CN(C)CCc1ccc(-c2cc(Cl)c3cn(C(C(=O)Nc4nccs4)c4ncn5c4C[C@@H](F)C5)nc3c2Cl)cc1 (stereo partly drawn) [Example 35, 2-(4,7-Dichloro-6-(4-(2-(dimethylamino)ethyl)phenyl)-2H-indazol-2-yl)-2-((R)-6-fluoro-6,7-dihydro-5H-pyrrolo[1,2-c]imidazol-1-yl)-N-(thiazol-2-yl)acetamide], the IC50 is reported as 6 nM.
Work on O=C(Nc1nccs1)C(c1ncn2c1C[C@@H](F)C2)n1cc2c(Cl)cc(-c3ccc(N4CC(CN5CCC(CO)CC5)C4)cc3)c(Cl)c2n1 (mixture of isomers) [Example 59, rac-2-(4,7-Dichloro-6-(4-(3-((4-(hydroxymethyl)piperidin-1-yl)methyl)azetidinyl)phenyl)-2H-indazol-2-yl)-2-((R)-6-fluoro-6,7-dihydro-5H-pyrrolo[1,2-c]imidazol-1-yl)-N-(thiazol-2-yl)acetamide] yielded an IC50 of 5 nM.
CN(Cc1ccc(-c2cc(Cl)c3cn(C(C(=O)Nc4nccs4)c4ncn5c4C[C@@H](F)C5)nc3c2Cl)cc1)C1CCCC(O)C1 (mixture of isomers) [Example 95, rac-2-(4,7-Dichloro-6-(4-(((3-hydroxycyclohexyl)(methyl)amino)methyl)phenyl)-2H-indazol-2-yl)-2-((R)-6-fluoro-6,7-dihydro-5H-pyrrolo[1,2-c]imidazol-1-yl)-N-(thiazolyl)acetamide] gave an IC50 of 6 nM.
